Laboratory results published in publication PMC11480993, “Combining Data-Driven and Structure-Based Approaches in Designing Dual PARP1-BRD4 Inhibitors for Breast Cancer Treatment” (Journal of Chemical Information and Modeling, 2024).
Read-outs that look alike come from different tables or passages of the source.

How the values were obtained:
[1] = target: PARP1 (Homo sapiens, UniProt P09874); assay: In vitro PARP1 enzymatic activity (ELISA, biotinylated NAD+, luminescence); type: biochemical
Procedure: The inhibition of the tested compounds on PARP1 enzymatic activity was determined by ELISA in 96-well plates. Each well was precoated with histone (20 μg/mL) diluted in 100 μL of PBS buffer (10 mM NaH2PO4, 100 mM Na2HPO4, 150 mM NaCl, pH 7.4) by incubation at 4 °C overnight. […] The reaction was initiated by the addition of 20 μL of PARP1 (50 ng/well) at 30 °C for 1 h. Then the reaction solution was added to 50 μL of streptavidin conjugated HRP. The assay was performed at 30 °C for an additional 30 min. Finally, 100 μL of solution (H2O2 and luminol in citrate buffer 0.1 M, pH 5.4) was added and luminescent signal was measured using a multiwell spectrophotometer (Molecular Devices SpectraMax M5 microplate reader).

[2] = target: BRD1 (Homo sapiens, UniProt O95696); assay: BRD TR-FRET assay, BRD1; type: binding
Procedure: (§1) The assay was performed by TR-FRET technology using a BRD and its corresponding ligand (BET). The TR-FRET signal from the assay is correlated with the amount of ligand binding to the bromodomain. All of the binding reactions were conducted at room temperature. The 20 μL reaction mixture in Assay Buffer contains either bromodomains, BET Ligand, and the indicated amount of inhibitor. For the negative control (blank), 5 μL of the assay buffer was added instead of the BET ligand. The reaction mixture was incubated for 120 min. After the incubation with the ligand, the TR-FRET signal was measured using a Tecan Infinite M1000 plate reader.

[3] = target: BRD4 BD1 (Homo sapiens, UniProt O60885); assay: BRD TR-FRET assay, BRD4 BD1; type: binding
Procedure: as §1

[4] = target: BRD4 BD2 (Homo sapiens, UniProt O60885); assay: BRD TR-FRET assay, BRD4 BD2; type: binding
Procedure: as §1

[5] = tested on: MCF-7 cells; assay: Cell viability (MTT), MCF-7; type: cell-based; conditions: Homo sapiens, MCF7, 96 h; 4-day treatment, wild-type BRCA
Procedure: (§2) MDA-MB-231, MDA-MB-436, and MCF-7 cells were seeded into 96-well plates with the number of 5 × 10^3 in each cell and allowed to incubate for 24 h. Subsequently, various concentrations of the test compounds (ranging from 100 to 0.78 μM with twice gradient dilution) were introduced. After 4 days of incubation, MTT solution was applied, and the cells were incubated for an additional 4 h. Following the removal of the supernatant, the violet crystals were dissolved in 200 μL of DMSO, and the absorbance was measured at 570 nm.

[6] = tested on: MDA-MB-231 cells; assay: Cell viability (MTT), MDA-MB-231; type: cell-based; conditions: Homo sapiens, MDA-MB-231, 96 h; 4-day treatment, wild-type BRCA
Procedure: as §2

[7] = tested on: HEK293T (human embryonic kidney cell); assay: Cytotoxicity against non-tumor cells, HEK293T; type: cell-based; conditions: HEK-293T, 96 h, 4-day treatment
Description: (§3) To further establish HF4’s advantage, we employed a web-based in silico cytotoxicity prediction tool (https://www.way2drug.com/clc-pred/index.php), encompassing the prediction against 391 tumor and 47 normal human cell lines,[47] to predict the cytotoxicity of HF4 against nontumor cell lines. […] The absence of nontumor cell lines among the top-ranked ones indicates a limited impact on normal cell line. When threshold of ≥0.15 was applied, among 50 predictions, only a single normal cell line (HEK293) was present in the list, with a predicted probability value below 0.2. We further reinforced the safety profile of HF4 by conducting experimental safety assessments on two normal cell lines. […] In summary, we conducted both computational safety predictions and experimental evaluations on normal cell lines to strengthen the assurance of HF4’s safety profile.
(§4) Cytotoxicity of HF4 against non-tumor cells
(§5) Figure S6. Cytotoxicity of HF4 against non-tumor cells during a 4-day treatment.
(§6) (1 picture or pasted object on this page, not shown here)

[8] = tested on: L02 (normal human liver cell); assay: Cytotoxicity against non-tumor cells, L02; type: cell-based; conditions: 96 h, 4-day treatment
Description: as §3, §4, §5, §6

[9] = tested on: MCF-7 cells; assay: Colony formation assay; type: cell-based; conditions: seven-day exposure
Procedure: The cells were placed in a 6-well plate at a density of approximately 500 cells per well and allowed to incubate for 24 h. Subsequently, the cells were exposed to the specified concentrations of test compounds and a control vehicle for a duration of 7 days. Following this treatment period, the cells were fixed using a 4% formaldehyde solution, stained with crystal violet, and then imaged.

[10] = tested on: MCF-7 cells; assay: Cell apoptosis detection (Annexin V-FITC/PI flow cytometry); type: cell-based; conditions: 2 μM, MCF-7, dose-dependent
Procedure: Cell apoptosis was assessed using the Annexin V-FITC/PI apoptosis detection kit. Following a 24 h treatment, cells were harvested and rinsed with PBS. Subsequently, the gathered cells were stained in accordance with the manufacturer’s guidelines and analyzed using BD FACSCelesta flow cytometry (New York, USA). FlowJo_V10 software was employed for data analysis.

[11] = tested on: BRD4; assay: Western blot, BRD4 expression in MCF-7 cells; type: cell-based; conditions: MCF-7, 48 h treatment
Procedure: (§7) Following a 48 h treatment, cellular proteins were extracted using RIPA cell lysis buffer containing protease and phosphatase inhibitor cocktail. The protein concentration was assessed by using a BCA assay. Subsequently, equal amounts of these proteins were loaded onto an SDS-PAGE gel and transferred onto a PVDF membrane. The protein-loaded membrane was then blocked using a commercial blocking solution (Beyotime, China) and sequentially incubated with primary and secondary antibodies. Protein bands were visualized using an ECL chemiluminescence kit and quantified using ImageJ software.

[12] = tested on: PARP1; assay: Western blot, PARP1 expression in MCF-7 cells; type: cell-based; conditions: MCF-7, 48 h treatment
Procedure: as §7

[13] = tested on: Caspase 3; assay: Western blot, Caspase 3 in MCF-7 cells; type: cell-based; conditions: MCF-7, 48 h, dose-dependent
Procedure: as §7

[14] = tested on: cleaved Caspase 3; assay: Western blot, cleaved Caspase 3 in MCF-7 cells; type: cell-based; conditions: MCF-7, 48 h, dose-dependent
Procedure: as §7

[15] = tested on: CDK6; assay: Western blot, CDK6 in MCF-7 cells; type: cell-based; conditions: MCF-7, 48 h
Procedure: as §7

[16] = tested on: E2F2; assay: Western blot, E2F2 in MCF-7 cells; type: cell-based; conditions: MCF-7, 48 h
Procedure: as §7

[17] = tested on: γH2AX; assay: Western blot, γH2AX in MCF-7 cells; type: cell-based; conditions: MCF-7, 48 h
Procedure: as §7

Chain of PARP1 (Homo sapiens, UniProt P09874) (P09874 whole entry): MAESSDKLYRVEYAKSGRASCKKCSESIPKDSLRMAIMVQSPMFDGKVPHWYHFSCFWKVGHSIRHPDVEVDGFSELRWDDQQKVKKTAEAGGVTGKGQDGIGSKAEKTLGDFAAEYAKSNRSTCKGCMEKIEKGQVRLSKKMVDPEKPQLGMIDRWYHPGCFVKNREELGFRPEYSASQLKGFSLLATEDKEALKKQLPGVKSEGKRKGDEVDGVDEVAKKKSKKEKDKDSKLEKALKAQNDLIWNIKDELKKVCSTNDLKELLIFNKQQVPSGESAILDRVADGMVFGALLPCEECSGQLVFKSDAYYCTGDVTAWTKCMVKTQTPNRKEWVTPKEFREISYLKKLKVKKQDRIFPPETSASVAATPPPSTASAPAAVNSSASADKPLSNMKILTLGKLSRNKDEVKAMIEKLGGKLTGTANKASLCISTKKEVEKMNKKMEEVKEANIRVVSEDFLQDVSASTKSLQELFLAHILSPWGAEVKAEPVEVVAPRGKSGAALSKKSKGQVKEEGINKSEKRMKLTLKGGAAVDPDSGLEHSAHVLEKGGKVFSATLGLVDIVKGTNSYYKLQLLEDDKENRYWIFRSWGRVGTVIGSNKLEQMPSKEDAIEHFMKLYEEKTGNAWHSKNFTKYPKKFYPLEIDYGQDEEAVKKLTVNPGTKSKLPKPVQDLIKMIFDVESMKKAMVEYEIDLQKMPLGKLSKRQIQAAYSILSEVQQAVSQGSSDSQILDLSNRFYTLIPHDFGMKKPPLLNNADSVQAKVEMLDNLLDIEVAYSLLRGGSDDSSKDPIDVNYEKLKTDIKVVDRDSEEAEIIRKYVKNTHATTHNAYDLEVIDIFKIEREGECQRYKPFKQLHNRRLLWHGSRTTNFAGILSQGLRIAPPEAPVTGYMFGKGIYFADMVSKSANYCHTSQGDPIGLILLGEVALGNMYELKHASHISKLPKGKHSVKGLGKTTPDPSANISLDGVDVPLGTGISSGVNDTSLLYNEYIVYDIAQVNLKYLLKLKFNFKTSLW
Chain of BRD1 (O95696 whole entry): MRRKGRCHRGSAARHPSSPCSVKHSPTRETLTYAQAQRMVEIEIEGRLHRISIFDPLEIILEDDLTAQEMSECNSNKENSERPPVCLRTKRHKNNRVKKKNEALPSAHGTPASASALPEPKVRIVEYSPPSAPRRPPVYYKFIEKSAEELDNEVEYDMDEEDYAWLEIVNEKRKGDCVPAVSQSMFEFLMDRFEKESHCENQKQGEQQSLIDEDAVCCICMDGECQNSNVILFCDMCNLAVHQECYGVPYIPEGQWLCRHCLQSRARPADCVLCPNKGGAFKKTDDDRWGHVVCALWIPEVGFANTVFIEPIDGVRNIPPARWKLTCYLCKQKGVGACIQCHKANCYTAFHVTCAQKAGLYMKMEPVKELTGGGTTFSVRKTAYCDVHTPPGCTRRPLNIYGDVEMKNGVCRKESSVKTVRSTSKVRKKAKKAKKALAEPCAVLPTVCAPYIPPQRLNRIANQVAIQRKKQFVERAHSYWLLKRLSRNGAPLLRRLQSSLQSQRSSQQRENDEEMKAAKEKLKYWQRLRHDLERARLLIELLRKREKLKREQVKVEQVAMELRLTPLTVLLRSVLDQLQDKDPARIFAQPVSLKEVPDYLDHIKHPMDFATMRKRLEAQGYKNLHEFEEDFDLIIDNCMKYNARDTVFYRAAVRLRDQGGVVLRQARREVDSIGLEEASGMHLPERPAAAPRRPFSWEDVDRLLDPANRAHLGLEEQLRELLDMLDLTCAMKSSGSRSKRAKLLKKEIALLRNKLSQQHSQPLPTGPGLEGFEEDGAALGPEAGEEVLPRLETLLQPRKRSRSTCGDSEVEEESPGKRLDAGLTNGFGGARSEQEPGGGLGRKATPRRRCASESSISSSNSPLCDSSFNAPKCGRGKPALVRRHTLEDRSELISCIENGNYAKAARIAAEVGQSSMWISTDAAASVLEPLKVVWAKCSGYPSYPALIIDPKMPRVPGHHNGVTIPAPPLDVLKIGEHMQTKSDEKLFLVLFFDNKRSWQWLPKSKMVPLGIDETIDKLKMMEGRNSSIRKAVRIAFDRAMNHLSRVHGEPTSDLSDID

For `CCc1cc2cc(NS(=O)(=O)c3ccc(F)c(C)c3)ccc2[nH]c1=O` [HF4, N-(3-ethyl-2-oxo-1,2-dihydroquinolin-6-yl)-4-fluoro-3-methylbenzenesulfonamide], the IC50 [1] was 2.02 ± 0.683 µM, the “decrease in effectiveness against PARP1, tricyclic to bicyclic scaffold” value ([1]; HF4 vs HF1) was “approximately 20 fold” and the “ligand efficiency index against PARP1” value ([1]; pIC50 divided by HAC, HAC = 25) was 0.23. The IC50 ([1]; value of the text) was about 2 µM, the IC50 [2] was 55.6 ± 13.9 µM and the IC50 [3] was 0.204 ± 0.068 µM. The “selectivity BRD4 BD1 over BRD4 BD2” value ([3]; IC50 BD1 vs BD2) was “four times more potent”, the IC50 [4] was 0.801 ± 0.238 µM and the IC50 [5] was 2.1 µM. It also gave an IC50 [6] of 2.2 µM, an IC50 [7] of 21.5 ± 7.4 µM and an IC50 [8] of 26.3 ± 6.2 µM. The colony formation ([9]; 2 μM) was “marked decline in colony formation”, the colony formation ([9]; 8 μM) was “nearly no visible colonies” and the apoptotic cells [10] was “substantial increase in apoptotic cells”. For the same molecule, the BRD4 expression [11] was “an increase but to a much lesser extent than JQ1”, the PARP1 expression [12] was “limited effect” and the “Caspase 3 expression” value [13] was “significantly downregulated”. The “cleaved Caspase 3 expression” value [14] was “upregulating”, the CDK6 expression [15] was “dose-dependently lowered” and the E2F2 expression [16] was “suppressed”. For the same molecule, the “levels of γH2AX” value [17] was “dose-dependent upregulation”.
